Here are results for one molecule from publication PMC4386068 (Journal of chemical information and modeling, 2015).

The experiment concerns the target InhA (Mtb enoyl-acyl-carrier-protein reductase) (Mycobacterium tuberculosis, UniProt P9WGR1). Put plainly: InhA enzyme inhibition assay, % inhibition at […] without pre-incubation. Type of experiment: biochemical. Particulars: read-out: % inhibition at 100 nM.

InhA (Mtb enoyl-acyl-carrier-protein reductase), sequence (P9WGR1 whole entry, looked up): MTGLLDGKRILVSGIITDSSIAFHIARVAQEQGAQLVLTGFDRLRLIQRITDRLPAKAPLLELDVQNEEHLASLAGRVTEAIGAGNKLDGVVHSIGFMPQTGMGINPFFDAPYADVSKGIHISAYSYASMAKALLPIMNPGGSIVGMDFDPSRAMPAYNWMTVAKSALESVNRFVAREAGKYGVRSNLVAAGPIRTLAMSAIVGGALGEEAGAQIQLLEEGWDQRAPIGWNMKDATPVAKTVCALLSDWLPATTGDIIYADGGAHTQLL

The term inhibition denotes the change of the read-out against control, counted positive when it falls. As for `CCCCCCc1ccc(Oc2ccccc2C)c(O)c1` [PT70], the inhibition at 0.1 µM was found to be 75%.
